Assay results: PubChem BioAssay (NCI)
Where “and” joins values, the source holds several entries; their conditions need not be identical. Equal values may be shown once.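 Five compound concentrations were applied to cells in 96-well plates for 48 hours; endpoints were derived by simple linear interpolation of the resulting dose-response curve. GI50 is the concentration that inhibits growth by half. TGI marks complete inhibition of growth.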

Experiments:
Assay in all cases: NCI tumour cell line growth inhibition, 48 h
HCC-2998 colon = test system: HCC-2998 colon
HCT-116 colon = test system: HCT-116 colon
HCT-15 colon = test system: HCT-15 colon
HOP-62 NSCLC = test system: HOP-62 NSCLC
HS 578T breast = test system: HS 578T breast
KM12 colon = test system: KM12 colon
MDA-MB-231 breast = test system: MDA-MB-231 breast
NCI-H23 lung = test system: NCI-H23 lung
SF-268 CNS = test system: SF-268 CNS
SK-MEL-5 melanoma = test system: SK-MEL-5 melanoma
UACC-257 melanoma = test system: UACC-257 melanoma
UACC-62 melanoma = test system: UACC-62 melanoma

| SMILES | TGI (HCC-2998 colon) | TGI (HCT-116 colon) | TGI (HCT-15 colon) | TGI (HOP-62 NSCLC) | TGI (HS 578T breast) | TGI (KM12 colon) | TGI (MDA-MB-231 breast) | TGI (NCI-H23 lung) | TGI (SF-268 CNS) | TGI (SK-MEL-5 melanoma) | TGI (UACC-257 melanoma) | TGI (UACC-62 melanoma) | GI50 (HCC-2998 colon) | GI50 (HCT-116 colon) | GI50 (HCT-15 colon) | GI50 (KM12 colon) | GI50 (MDA-MB-231 breast) | GI50 (NCI-H23 lung) | GI50 (SF-268 CNS) | GI50 (UACC-62 melanoma) |
| --- | --- | --- | --- | --- | --- | --- | --- | --- | --- | --- | --- | --- | --- | --- | --- | --- | --- | --- | --- | --- |
| Cc1cn(CCCCC2=NCCCN2)c(=O)[nH]c1=O | > 32.9 µM | > 29.3 µM | > 47.2 µM | > 60.7 µM | > 60.5 µM | > 48.9 µM | > 42 µM | > 44.3 µM | > 24.2 µM | > 38.1 µM | > 33.9 µM | > 59.1 µM |  |  |  |  |  |  |  |  |
| CCOP1(=O)CC(C)=C(Cl)C(O)C1 (stereo not drawn) | > 100 µM | > 100 µM | > 100 µM | > 100 µM | > 100 µM | > 100 µM | > 100 µM | > 100 µM | > 100 µM | > 100 µM | > 100 µM | > 100 µM |  |  |  |  |  |  |  |  |
| COC(=O)[C@]1(NC(=O)c2ccccc2)C[C@H]1C=O | > 100 µM | > 100 µM | > 100 µM | > 100 µM | > 100 µM | > 100 µM | > 100 µM | > 100 µM | > 100 µM | > 100 µM | > 100 µM | > 100 µM |  |  |  |  |  |  |  |  |
| O=[N+]([O-])c1ccc(OC2CC3C4C=CC3C2C4)c([N+](=O)[O-])c1 (stereo not drawn) | > 100 µM | > 100 µM | > 100 µM | > 100 µM | > 100 µM | > 100 µM | 74 µM and > 31.6 µM | > 100 µM | > 100 µM | > 100 µM | > 100 µM | > 100 µM | > 100 µM | 66.2 µM and > 31.6 µM | > 100 µM | > 100 µM | 11.3 µM and > 31.6 µM | > 100 µM and 26.8 µM | > 100 µM | 84.4 µM and > 31.6 µM |
| CCOC(=O)c1nc2cc(C(F)(F)F)ccc2nc1Nc1ccc(OC)cc1 | > 100 µM | > 100 µM | > 100 µM | > 100 µM | > 100 µM | > 100 µM | > 100 µM | > 100 µM | > 100 µM | > 100 µM | > 100 µM | > 100 µM |  |  |  |  |  |  |  |  |
